Measurements reported in patent US5041567A, “Antibacterial monic acid derivatives” (Beecham Group plc, priority 1982, dated 1991).
Values after ≈ are worked out from the molar mass of the structure shown. Like-named read-outs stand apart in the source and are kept apart here.

Key:
Past. haemolytica PA5 = assay: MIC against veterinary bacteria in vitro; conditions: Mannheimia haemolytica, PA5, 18 h
Description: (§1) The activity of the compounds of the Examples against various veterinarily important bacteria, was assayed in vitro using two-fold serial dilutions in Diagnostic Sensitivity Test Agar inoculated with 10^4 organisms.

Bacillus subtilis 6633 = assay: MIC against human bacteria in vitro; format: cell-based
Staph. aureus Russell = assay: MIC against human bacteria in vitro; format: cell-based; conditions: Staphylococcus aureus
E. coli NCTC 10418 [1] = assay: MIC against veterinary bacteria in vitro; conditions: Escherichia coli, NCTC10418, 18 h
Description: as §1

[2] = system: M. hyosynoviae ATCC 25591; assay: MIC against mycoplasma in vitro; format: cell-based; conditions: 144 h
M. pneumoniae ATCC 15492 = assay: MIC against mycoplasma in vitro; format: cell-based; conditions: Mycoplasmoides pneumoniae, ATCC15492, 144 h
M. suipneumoniae LABER = assay: MIC against mycoplasma in vitro; format: cell-based; conditions: Mesomycoplasma hyopneumoniae, 144 h
[3] = system: Haemophilus influenzae Q1; assay: MIC against human bacteria in vitro; format: cell-based
[4] = system: M. suipneumoniae ATCC 25095; assay: MIC against mycoplasma in vitro; format: cell-based; conditions: Mesomycoplasma hyopneumoniae, ATCC25095, 144 h
[5] = system: Ps. aeruginosa NCTC 10662; assay: MIC against human bacteria in vitro; format: cell-based; conditions: Pseudomonas aeruginosa
Bord. bronchiseptica B09 = assay: MIC against veterinary bacteria in vitro; conditions: Bordetella bronchiseptica, B09, 18 h
Description: as §1

E. coli NCTC 10418 [6] = assay: MIC against human bacteria in vitro; format: cell-based; conditions: Escherichia coli
[7] = system: Haemophilus influenzae Wy21; assay: MIC against human bacteria in vitro; format: cell-based
E. coli ESS = assay: MIC against human bacteria in vitro; format: cell-based; conditions: Escherichia coli
[8] = system: Strep. pyogenes R80/421-A; assay: MIC against human bacteria in vitro; format: cell-based; conditions: Streptococcus pyogenes; Strep. pyogenes R80/421-A; 5% chocolated horse blood agar, 18 hours; read-out: MIC
Past. multocida PA1 = assay: MIC against veterinary bacteria in vitro; conditions: Pasteurella multocida, PA1, 18 h
Description: as §1

S. dublin S7 = assay: MIC against veterinary bacteria in vitro; conditions: Salmonella enterica, S7, 18 h
Description: as §1

[9] = system: Corynebacterium xerosis 9755; assay: MIC against human bacteria in vitro; format: cell-based
E. coli E1 = assay: MIC against veterinary bacteria in vitro; conditions: Escherichia coli, E1, 18 h
Description: as §1

Strep. agalactiae SPA1 = assay: MIC against veterinary bacteria in vitro; conditions: Streptococcus agalactiae, SPA1, 18 h
Description: as §1

Strep. spp. 64/848-C = assay: MIC against human bacteria in vitro; format: cell-based
Strep. uberis SPU1 = assay: MIC against veterinary bacteria in vitro; conditions: Streptococcus uberis, SPU1, 18 h
Description: as §1

[10] = system: Neisseria catarrhalis 1502; assay: MIC against human bacteria in vitro; format: cell-based
[11] = Staph. aureus Russell, 5% chocolated horse blood agar, 18 hours, read-out: MIC
[12] = M. hyosynoviae ATCC 25591, 6 days, 37° C., read-out: MIC
[13] = M. pneumoniae ATCC 15492, 6 days, 37° C., read-out: MIC
[14] = M. suipneumoniae LABER, 6 days, 37° C., read-out: MIC
[15] = Haemophilus influenzae, Q1, 18 h
[16] = M. suipneumoniae ATCC 25095, 6 days, 37° C., read-out: MIC
[17] = Haemophilus influenzae, WY21, 18 h
[18] = Corynebacterium xerosis, 9755, 18 h
[19] = Neisseria catarrhalis 1502, 5% chocolated horse blood agar, 18 hours, read-out: MIC
[20] = Bacillus subtilis 6633, 5% chocolated horse blood agar, 18 hours, read-out: MIC
[21] = NCTC10662, Ps. aeruginosa NCTC 10662, 5% chocolated horse blood agar, 18 hours, read-out: MIC
[22] = NCTC10418, E. coli NCTC 10418, agar with 5% chocolated horse blood, 18 hours, 37° C., read-out: MIC
[23] = Haemophilus influenzae Wy21, 5% chocolated horse blood agar, 18 hours, read-out: MIC
[24] = E. coli ESS, 5% chocolated horse blood agar, 18 hours, read-out: MIC
[25] = Corynebacterium xerosis 9755, 5% chocolated horse blood agar, 18 hours, read-out: MIC
[26] = Strep. spp. 64/848-C, 5% chocolated horse blood agar, 18 hours, read-out: MIC
[27] = Haemophilus influenzae Q1, 5% chocolated horse blood agar, 18 hours, read-out: MIC

SMILES | MIC (Past. haemolytica PA5) [µg/mL] | MIC (Staph. aureus Russell; [11]) [µg/mL] | MIC (E. coli NCTC 10418 [1]) [µg/mL] | MIC [2, 12] [µg/mL] | MIC (M. pneumoniae ATCC 15492; [13]) [µg/mL] | MIC (M. suipneumoniae LABER; [14]) [µg/mL] | MIC [4, 16] [µg/mL] | MIC (Bord. bronchiseptica B09) [µg/mL] | MIC [8] [µg/mL] | MIC (Past. multocida PA1) [µg/mL] | MIC (S. dublin S7) [µg/mL] | MIC (E. coli E1) [µg/mL] | MIC (Strep. agalactiae SPA1) [µg/mL] | MIC (Strep. uberis SPU1) [µg/mL] | MIC [10, 19] [µg/mL] | MIC (Bacillus subtilis 6633; [20]) [µg/mL] | MIC [5, 21] [µg/mL] | MIC [7, 23] [µg/mL] | MIC [9, 25] [µg/mL] | MIC (Strep. spp. 64/848-C; [26]) [µg/mL] | further results
COC(=O)CCCCCCCc1cnc(/C=C(\C)C[C@@H]2OC[C@H](C[C@@H]3O[C@H]3[C@@H](C)[C@H](C)O)[C@@H](O)[C@H]2O)o1 [Example 7, 5-(7-Methoxycarbonylheptyl)-2-(1-normon-2-yl)oxazole A] | > 80 | 25 (≈ 47.7 µM) | > 80 | 5 (≈ 9.55 µM) | > 10 | 10 (≈ 19.1 µM) | 10 (≈ 19.1 µM) | 40 (≈ 76.4 µM) | 25 (≈ 47.7 µM) | 40 (≈ 76.4 µM) | > 80 | > 80 | 5 (≈ 9.55 µM) | 1.25 (≈ 2.39 µM) |  |  |  |  |  |  | MIC (Bacillus subtilis 6633; Bacillus subtilis, 6633, 18 h): 2.5 µg/mL (≈ 4.77 µM); MIC [3, 15]: 0.5 µg/mL (≈ 0.955 µM); MIC ([5]; NCTC10662, 18 h): > 100 µg/mL; MIC (E. coli NCTC 10418 [6]; NCTC10418, 18 h): > 100 µg/mL; MIC [7, 17]: 1 µg/mL (≈ 1.91 µM); MIC (E. coli ESS; 18 h): 0.5 µg/mL (≈ 0.955 µM); MIC [9, 18]: > 100 µg/mL; MIC (Strep. spp. 64/848-C; 18 h): 10 µg/mL (≈ 19.1 µM); MIC ([10]; Neisseria, 1502, 18 h): 5 µg/mL (≈ 9.55 µM)
CSc1ccc(-c2cnc(/C=C(\C)C[C@@H]3OC[C@H](C[C@@H]4O[C@H]4[C@@H](C)[C@H](C)O)[C@@H](O)[C@H]3O)o2)cc1 [Example 9, 5-p-methylthiophenyl-2-(1-normon-2-yl)oxazole A] | 40 (≈ 81.7 µM) |  | > 80 |  |  |  |  | 40 (≈ 81.7 µM) | 10 (≈ 20.4 µM) | 20 (≈ 40.8 µM) | > 80 | > 80 | 10 (≈ 20.4 µM) | 0.16 (≈ 0.327 µM) | 10 (≈ 20.4 µM) |  |  |  |  |  | MIC (Bacillus subtilis 6633; Bacillus subtilis, 6633, 18 h): 1 µg/mL (≈ 2.04 µM); MIC (Staph. aureus Russell; 18 h): 5 µg/mL (≈ 10.2 µM); MIC [2]: 0.5 µg/mL (≈ 1.02 µM); MIC (M. pneumoniae ATCC 15492): 1 µg/mL (≈ 2.04 µM); MIC (M. suipneumoniae LABER): 0.5 µg/mL (≈ 1.02 µM); MIC [3, 15]: 5 µg/mL (≈ 10.2 µM); MIC [4]: 0.5 µg/mL (≈ 1.02 µM); MIC ([5]; NCTC10662, 18 h): > 100 µg/mL; MIC (E. coli NCTC 10418 [6]; NCTC10418, 18 h): > 100 µg/mL; MIC [7, 17]: 50 µg/mL (≈ 102 µM); MIC (E. coli ESS; 18 h): 5 µg/mL (≈ 10.2 µM); MIC [9, 18]: > 100 µg/mL; MIC (Strep. spp. 64/848-C; 18 h): 5 µg/mL (≈ 10.2 µM)
C/C(=C\c1ncc(-c2ccc(S(C)(=O)=O)cc2)o1)C[C@@H]1OC[C@H](C[C@@H]2O[C@H]2[C@@H](C)[C@H](C)O)[C@@H](O)[C@H]1O [Example 10] | 40 (≈ 76.7 µM) | 8 (≈ 15.3 µM) | > 80 |  |  |  |  | 40 (≈ 76.7 µM) | 8 (≈ 15.3 µM) | 5 (≈ 9.59 µM) | > 80 | > 80 | 2.5 (≈ 4.79 µM) | 0.625 (≈ 1.2 µM) | 8 (≈ 15.3 µM) | 2 (≈ 3.83 µM) | > 128 | 2 (≈ 3.83 µM) | > 128 | 4 (≈ 7.67 µM) | MIC [2]: 0.05 µg/mL (≈ 0.0959 µM); MIC (M. pneumoniae ATCC 15492): 0.1 µg/mL (≈ 0.192 µM); MIC (M. suipneumoniae LABER): 0.025 µg/mL (≈ 0.0479 µM); MIC [3, 15]: 1 µg/mL (≈ 1.92 µM); MIC [4]: 0.025 µg/mL (≈ 0.0479 µM); MIC (E. coli NCTC 10418 [6]; [22]): > 128 µg/mL; MIC (E. coli ESS; [24]): 8 µg/mL (≈ 15.3 µM)
C/C(=C\c1ncc(-c2ccc([S+](C)[O-])cc2)o1)C[C@@H]1OC[C@H](C[C@@H]2O[C@H]2[C@@H](C)[C@H](C)O)[C@@H](O)[C@H]1O (stereo partly drawn) [Example 11, 5-p-Methylsulphinylphenyl-2-(1-normon-2-yl) oxazole A] | 40 (≈ 79.1 µM) | 16 (≈ 31.6 µM) | > 80 | 0.25 (≈ 0.494 µM) | 0.5 (≈ 0.989 µM) | 0.1 (≈ 0.198 µM) | 0.25 (≈ 0.494 µM) | 40 (≈ 79.1 µM) | 4 (≈ 7.91 µM) | 5 (≈ 9.89 µM) | > 80 | > 80 | 2.5 (≈ 4.94 µM) | 0.312 (≈ 0.617 µM) | 8 (≈ 15.8 µM) | 4 (≈ 7.91 µM) | > 128 | 4 (≈ 7.91 µM) | > 128 | 2 (≈ 3.96 µM) | MIC [3, 27]: 2 µg/mL (≈ 3.96 µM); MIC (E. coli NCTC 10418 [6]; [22]): > 128 µg/mL; MIC (E. coli ESS; [24]): 128 µg/mL (≈ 253 µM)
C/C(=C\c1ncc(CCCCCCCC(=O)O)o1)C[C@@H]1OC[C@H](C[C@@H]2O[C@H]2[C@@H](C)[C@H](C)O)[C@@H](O)[C@H]1O [Example 12, Sodium 8-[2-(1-normon-2-yl)-5-oxazolyl]-octanoate A] | 40 | 8 | > 40 | 5 | > 10 | > 10 | 10 | 20 | 16 | 2.5 | > 40 | > 40 | 20 | 0.625 | 16 | 4 | > 16 | 2 | > 16 | 4 | MIC [3, 27]: 1 µg/mL; MIC (E. coli NCTC 10418 [6]; [22]): > 16 µg/mL; MIC (E. coli ESS; [24]): > 16 µg/mL
C/C(=C\c1ncc(-c2ccccc2)s1)C[C@@H]1OC[C@H](C[C@@H]2O[C@H]2[C@@H](C)[C@H](C)O)[C@@H](O)[C@H]1O [Example 29, 2-(1-Normon-2-yl)-5-phenylthiazole A] | > 80 | 100 (≈ 218 µM) | > 80 | > 10 | > 10 | 10 (≈ 21.8 µM) | 10 (≈ 21.8 µM) | > 80 | 50 (≈ 109 µM) | > 80 | > 80 | > 80 | 40 (≈ 87 µM) | 5 (≈ 10.9 µM) | 50 (≈ 109 µM) | 50 (≈ 109 µM) | > 100 | 50 (≈ 109 µM) | > 100 | 25 (≈ 54.4 µM) | MIC [3, 27]: 50 µg/mL (≈ 109 µM); MIC (E. coli NCTC 10418 [6]; NCTC10418, 18 h): > 100 µg/mL; MIC (E. coli ESS; 18 h): > 100 µg/mL
